{"source": "patent US8242115B2", "about": "“Materials and methods to potentiate cancer treatment” (Luitpold Pharmaceuticals, Inc., priority 2000, dated 2012)", "key": {"[1]": {"system": "MDA-MB231 (human breast carcinoma) cells", "experiment": "DNA double-strand break repair assay (pulse field electrophoresis)", "type": "cell-based", "conditions": "25 Gy; concentrations which enhanced radiation induced cell killing", "description": "To further determine the cellular effect of DNA-PK inhibitors, an assay to measure chromosomal discontinuities was employed. Ionizing radiation induces chromosomal DNA double-strand breaks. Following high dose radiation, chromosomes can be extracted from cells and fractionated by pulse field electrophoresis to distinguish chromosomal fragments from intact larger chromosomes. Using this technique, the activity of DNA-PK inhibitors was measured.\nMDA-MB231 (human breast carcinoma) cells were seeded onto T25 flasks with RPMI1640+10% FBS, 2 mM L-glutamine, penicillin G 100 U/ml-streptomycin sulfate 10 μg/ml, 1 mM Na pyruvate. When confluent, media was removed and replaced with media containing DNA-PK inhibitor or vehicle. Cells were incubated at 37° C. for 1 hr in a humidified chamber with 5% CO2. Media then was removed and flasks were filled with ice-cold D-PBS and either: (a) processed immediately; (b) irradiated (25 Gy in a ^137Cs Mark I irradiator at a flux of 335 rad/min) and processed immediately; (c) irradiated and incubated for 2 hr in complete RPMI1640+vehicle at 37° C. (in humidified 5% CO2 atmosphere to allow for DNA repair), or (d) irradiated and incubated for 2 hr in complete RPMI1640+DNA-PK inhibitor compound. […] Chromosomal DNA was visualized with SYBR-Gold (Molecular probes # S-11494) and the fluorescent image quantified on the STORM 860 (Molecular Dynamics)."}, "[2]": {"system": "HCT116 cells (human colon carcinoma) xenograft tumors", "experiment": "Animal tumor model, drug plus γ-radiation", "type": "in vivo, athymic BALB/c (nu/nu) mice", "set-up": "tumor growth with radiation plus drug: dose or concentration left out as unconfirmed", "conditions": "250 rad plus drug once daily for five days", "description": "HCT116 cells (human colon carcinoma) were used to propagate xenograft tumors in 6-8 week old female athymic BALB/c (nu/nu) mice. Mice were maintained in a laminar airflow cabinet under pathogen-free conditions and fed sterile food and water ad libitum. HCT116 cells were grown to subconfluence in McCoy's media supplemented with 10% FBS, 100 U/mL penicillin, 100 μg/mL streptomycin, and 1.5 mM L-glutamine in a 5% CO2 humidified environment. Single cell suspensions were prepared in CMF-PBS (0.9 mM KCl, 2.7 mM KH2PO4, 13.8 mM NaCl, pH 7.5), and cell concentration adjusted to 4×10^7 cells/mL. Mice were inoculated subcutaneously (s.c.) on the right flank or right leg with a total of 4×10^6 cells (100 μL).\nMice were randomized (5 mice/group) into four treatment groups and used when tumors reached a weight of 75 to 100 mg (usually 7 to 11 days post-inoculation). Tumors were measured with vernier calipers and tumor weights were estimated using the empirically-derived formula below. Tumor weight(mg)=tumor length(mm)×tumor width(mm)^2/3.3. […] Tumor size was monitored every other day for the duration of the experiment."}, "[3]": {"system": "human colon carcinoma cell line HCT116", "experiment": "cells", "type": "cell-based", "description": "Cells plated at a density of 5,000 to 20,000 per well in 96-well microtiter plates were grown in RMPI 1640 containing 10% FBS, 100 U/mL penicillin and 100 μg/mL streptomycin, for 18 h at 37° C. in a humidified incubator with 5% CO2. Cells tested included ACHN, 786-0, HCT-116, SW620, SK-MEL-5, SK-MEL-28, A549, H322, OVCAR-3, SK-OV-3, MCF-7, MDA-MB-231, MOLT4, HL60, SNB-19, PC-3. Cells were treated with media containing chemotherapeutic drugs alone or with media containing chemotherapeutic drugs and a DNA-PK inhibitor of the invention, 1-(2-hydroxy-4-morpholin-4-yl-phenyl)-ethanone. Cells were incubated for two days before growth was measured using a tetrazolium dye assay (MTS). Chemotherapeutic drugs included bleomycin etoposide, vinblastine, doxorubicin, paclitaxel, cisplatin, chlorambucil, cyclophosphamide, 5-fluorouracil, cytosine-arabinoside, 6-mercaptoguanine and methotrexate (all purchased from Sigma). The drug concentration necessary to inhibit cell growth to 50% of untreated control cells was defined as the GI50."}, "[4]": {"experiment": "Pharmacokinetic analysis after subcutaneous administration", "type": "in vivo, mice"}, "[5]": {"system": "Colon carcinoma cells (HCT116)"}, "[6]": {"biological_target": "T1, human DNA-PK (Homo sapiens, UniProt P78527)", "T1 construct": "The frozen HeLa cell pellet was thawed at 37° C. and immediately centrifuged; endogenous in cells; host or cells: HeLa S3 cells (ATCC CCL-2.2); Endogenous enzyme purified via S100-2 fraction, Q-Sepharose FF and SP-Sepharose FF (fraction IV)", "experiment": "Standard DNA-PK assay (p53 peptide phosphorylation)", "type": "biochemical", "conditions": "read-out: IC50 (nM) DNA-PK Assay", "description": "Reactions were carried out at room temperature. Reactions were started by addition of ATP and stopped by application to phosphocellulose paper. Reaction products spotted onto phosphocellulose paper were washed five times with a total volume of at least 250 mL 10% acetic acid or 150 mM phosphoric acid. The paper was air dried and radioactivity was determined in a Beckman LS6000IC scintillation counter."}}}
{"smiles": "CC(=O)c1ccc(N2CCOCC2)cc1O", "note": "[Example 34, 1-(2-Hydroxy-4-morpholin-4-yl-phenyl)-ethanone]", "values": [{"measurement": "chromosomal DNA double-strand break repair", "setting": "[1]", "result": "inhibited DNA double-strand break repair"}, {"measurement": "tumor growth with radiation plus drug", "setting": "[2]", "result": "no increase in tumor growth"}, {"measurement": "GI50 (bleomycin) reduced", "setting": "[3]; 100 μM inhibitor, two days", "result": 7, "unit": "fold"}, {"measurement": "potentiation of growth inhibitory effects of agents that do not induce DNA dsbs", "setting": "[3]; vinblastine, doxorubicin, paclitaxel, cisplatin, cyclophosphamide, 5-fluorouracil, cytosine-arabinoside, 6-mercaptoguanine, methotrexate", "result": "did not potentiate"}, {"measurement": "chlorambucil GI50 reduced", "setting": "[3]; with inhibitor, two days", "result": 10, "unit": "fold"}, {"measurement": "etoposide GI50 reduced", "setting": "[3]; with inhibitor, two days", "result": 10, "unit": "fold"}, {"measurement": "duration of high plasma concentration", "setting": "[4]", "result": "remained high for about one hour"}, {"measurement": "effect of drug alone on cell division", "setting": "[5]", "result": "no effect on cell division"}, {"measurement": "enhancement of etoposide LD50", "setting": "[5]", "result": 15, "unit": "fold"}, {"measurement": "enhancement of etoposide LD90", "setting": "[5]", "result": 3, "unit": "fold"}, {"measurement": "radiation LD50 lower than in the absence of drug", "setting": "[5]; 200 μM", "result": 4, "unit": "fold"}, {"measurement": "radiation LD90 lower than without drug", "setting": "[5]; 200 μM", "result": 4, "unit": "fold"}, {"measurement": "sensitivity of HCT116 to killing by γ-radiation", "setting": "[5]; 200 μM", "result": "increased the sensitivity"}, {"measurement": "radiation dosage which kills 50% of the cells (LD50) in the presence of drug", "setting": "[5]; 200 μM, 150 rad without drug", "result": 35, "unit": "rad"}, {"measurement": "radiation dose that kills 90% of the cells (LD90) with drug", "setting": "[5]; 200 μM, 410 rad without drug", "result": 100, "unit": "rad"}, {"measurement": "D0, slope of the survival curve, with drug", "setting": "[5]; 150 rad without drug", "result": 50, "unit": "rad"}, {"measurement": "IC50", "setting": "[6]", "result": 120, "unit": "nM"}]}
